Results from US6472516B1, “Progestin-regulated gene” (The Garvan Institute of Medical Research, priority 1995, dated 2002).
Marks after values point to notes of the source that are not given here. Numbered stars: 1 amine (or outer) side, 2 acyl side, 3 side chain; on linkers, the order of the positions; unused ones are H or OH. Bridge positions count the residues as written; N and C are the ends. Square brackets hold non-standard residues; d marks the D form. Peptide text beside a SMILES is read from it. I, II: the chains in the order shown. Actinocin(9to1) = Cc1c2oc3c(C)ccc(C(=O)[*:1])c3nc-2c(C(=O)[*:2])c(N)c1=O; NMeV = CN[C@H](C(=O)O)C(C)C; Sar = CNCC(=O)O

Legend:
[1] = test system: PRG1 mRNA; experiment: Northern analysis of PRG1 mRNA expression in MCF-7 cells; assay type: cell-based, human
Procedure: (§1) The sources and maintenance of the human breast cancer cell lines used in this study were as described previously (33). 184 and 184B5 normal breast epithelial cells were the kind gift of Dr. M. Stampfer (University of California, Berkley, Calif.) and were maintained in mammary epithelial growth medium (Clonetics, San Diego, Calif.). Tissue culture experiments in serum-free medium were performed as previously described (6, 27). Briefly, T-47D cells were taken from stock cultures and passaged for 6 days in phenol red-free RPMI medium supplemented with 10% charcoal-treated fetal calf serum (FCS). During this time the cells received two changes of medium at 1- to 3-day intervals. The cells were replated into replicate 150 cm^2 flasks in medium containing 10% charcoal-treated FCS and the medium replaced with serum-free medium on the next two days. Serum-free medium was supplemented with 300 nM human transferrin. In experiments involving ORG 2058 the final serum-free medium contained 10 μg/ml (1.7 μM) human insulin. Three days after completion of these pre-treatments growth factor, steroid, steroid antagonist or cycloheximide were added. Control flasks received vehicle to the same final concentration. Cell cycle phase distribution was determined by analytical DNA flow cytometry, as previously described (6, 34).
(§2) Tissue culture experiments in serum-containing medium were performed as previously described (34). The experiment with livial and actinomycin D was as for experiments in serum-containing medium except that the medium contained 5% charcoal-treated FCS. Actinomycin D was added at the same time as livial. The experiment involving “estrogen rescue” was performed as described (30). […]
(§3) Cells harvested from triplicate 150 cm^2 flasks were pooled and RNA extracted by a guanidinium-isothiocyanate-cesium chloride procedure and Northern analysis was performed as previously described with 20 μg of total RNA per lane (6, 11). […] The mRNA abundance was quantified by densitometric analysis of autoradiographs using Molecular Dynamics Densitometer and software (Molecular Dynamics, Sunnyvale, Calif.). […]

[2] = test system: PRG1 mRNA; experiment: Northern analysis of PRG1 mRNA expression in T-47D cells; assay type: cell-based, human; conditions: for Induction of PRG1 mRNA by mitogen: T-47D growth-arrested by serum deprivation, 3 or 4 h, insulin 1.7 μM, heregulin 5 nM, bFGF 55 pM; for Relative mRNA Expression: relative to cells maintained in serum-free medium
Procedure: as §1
Tissue culture experiments in serum-containing medium were performed as previously described (34). The experiment with livial and actinomycin D was as for experiments in serum-containing medium except that the medium contained 5% charcoal-treated FCS. Actinomycin D was added at the same time as livial. The experiment involving “estrogen rescue” was performed as described (30). Briefly, MCF-7 cells were cultured in medium containing 5% FCS for 2 days. The antiestrogen ICI 182780 (10 nM) was then added to the medium for 48 h. after which the growth-arrested cells were treated with 100 nM 17β-estradiol, also added directly to the medium, resulting in the synchronous re-entry of cells into the cell cycle.
Cells harvested from triplicate 150 cm^2 flasks were pooled and RNA extracted by a guanidinium-isothiocyanate-cesium chloride procedure and Northern analysis was performed as previously described with 20 μg of total RNA per lane (6, 11). The membranes were hybridized overnight at 50° C. with probes labelled with [α-^32P]dCTP (Amersham Australia Pty Ltd, Castle Hill, Australia) using the Random Prime Labelling Kit (Promega, Sydney, Australia). The membranes were washed at a highest stringency of 0.2× SSC (30 mM NaCl. 3 mM sodium citrate [pH 7.0])+ 1% sodiwn dodecyl sulfate at 65° C. and exposed to Kodak X-OMAT or BIOMAX film at −70° C. Human multiple tissue Northern blots (Clontech Laboratories, Inc. Palo Alto, Calif.) were hybridized under conditions recommended by the manufacturer. The mRNA abundance was quantified by densitometric analysis of autoradiographs using Molecular Dynamics Densitometer and software (Molecular Dynamics, Sunnyvale, Calif.). The accuracy of loading was estimated by hybridizing membranes with a [γ-^32P]ATP end-labelled oligonucleotide complementary to 18S rRNA.

[3] = test system: T-47D cells; conditions: previously reported (refs 32, 54); cited from earlier work
[4] = test system: PRG1 mRNA; experiment: Northern analysis of PRG1 mRNA expression in MDA-MB-231 cells; assay type: cell-based, human
Procedure: as §1, §2, §3

[5] = T-47D, insulin-supplemented serum-free medium, 10 nM

C[C@]12CC[C@@H]3c4ccc(O)cc4CC[C@H]3[C@@H]1CC[C@@H]2O [17β-estradiol]
Relative mRNA Expression ([1]; MCF-7, at 4 h, after ICI 182 780 pre-treatment for 48 h, relative to antiestrogen treated control): 2.0^‡ at 4 h
Induction of PRG1 mRNA by estrogen rescue ([1]; MCF-7 growth-arrested by ICI 182780 (10 nM, 48 h), then 100 nM 17β-estradiol, 4 h): 2.0 fold

bFGF: human recombinant bFGF
Induction of PRG1 mRNA by mitogen [2]: 1.9 fold
Relative mRNA Expression ([2]; T-47D, at 3 h): 2.6^† at 3 h
Potency as mitogen in stimulating cell cycle progression [3]: equipotent

CCC1CC2C3CCC4=CC(=O)CCC4C3CCC2(C)C1C(=O)CO (stereo not drawn) [ORG 2058, 16α-ethyl-21-hydroxy-19-norpregn-4-en-3,20-dione]
Superinduction of PRG1 mRNA relative to control ([2]; T-47D, ORG 2058 10 nM in presence of cycloheximide 20 μg/ml, 3 h, experiment of FIG. 8): 12 fold
Time by which PRG1 mRNA had returned to control levels [2, 5]: ≤ 12 h
Time of maximal PRG1 mRNA induction [2, 5]: 3 h
Maximal PRG1 mRNA induction relative to time-matched control ([2]; T-47D, insulin-supplemented serum-free medium, 10 nM, 3 h, experiment of FIG. 5): 4.4 fold
PRG1 mRNA decrease below control mRNA levels ([4]; MDA-MB-231 (PR-negative), 10 nM, 3 h): approximately 30%
PRG1 mRNA level at 6 h after the decrease at 3 h (in words) ([4]; MDA-MB-231, 6 h, ORG 2058 10 nM, dexamethasone 100 nM): recovery
PRG1 mRNA increase above control mRNA levels ([1]; MCF-7 (PR-positive), 5% FCS, 10 nM, 3 h): approximately 2 fold

CC#C[C@]1(O)CC[C@H]2[C@@H]3CCC4=CC(=O)CCC4=C3[C@@H](c3ccc(N(C)C)cc3)C[C@@]21C [RU 486]
Effect on PRG1 mRNA levels, compound alone ([2]; T-47D, serum-free medium with insulin, 100 nM, 3 h): no effect

heregulin
Induction of PRG1 mRNA by mitogen [2]: 2.6 fold
Relative mRNA Expression ([2]; T-47D, at 4 h): 1.9^† at 4 h
Potency as mitogen in stimulating cell cycle progression [3]: one of the most potent mitogens

C[C@@H]1C[C@H]2[C@@H]3CCC4=CC(=O)C=C[C@]4(C)[C@@]3(F)[C@@H](O)C[C@]2(C)[C@@]1(O)C(=O)CO [dexamethasone, 9-fluro-11,17,21-trihydroxy-16-methylpregn-1,4-diene-3,20-dione]
PRG1 mRNA as percent of control levels ([4]; MDA-MB-231, 100 nM, 3 h): approximately 60 % of control

C#C[C@]1(O)CC[C@H]2[C@@H]3[C@H](C)CC4=C(CCC(=O)C4)[C@H]3CC[C@@]21C [livial, (7α, 17α)-17-hydroxy-7-methyl-19-norpregn-5(10)-en-20-yn-3-one]
PRG1 mRNA induction (in words) ([2]; T-47D, 5% charcoal-treated FCS, 10 nM): induced
PRG1 mRNA induction in presence of transcription inhibitor ([2]; T-47D, 5% charcoal-treated FCS, livial 10 nM with actinomycin D 5 μg/ml): not induced

Cc1c2oc3c(C)ccc(C(=O)N[C@@H]4C(=O)N[C@H](C(C)C)C(=O)N5CCC[C@H]5C(=O)N(C)CC(=O)N(C)[C@@H](C(C)C)C(=O)O[C@@H]4C)c3nc-2c(C(=O)N[C@@H]2C(=O)N[C@H](C(C)C)C(=O)N3CCC[C@H]3C(=O)N(C)CC(=O)N(C)[C@@H](C(C)C)C(=O)O[C@@H]2C)c(N)c1=O [actinomycin D] (I: T[dV]P[Sar][NMeV] / II: T[dV]P[Sar][NMeV]; ester I:1-I:C, II:1-II:C; linker I:N-II:N via Actinocin(9to1))
Effect on progestin induction of PRG1 mRNA ([2]; T-47D, actinomycin D 5 μg/ml with livial 10 nM): blocked

C[C@@H]1C[C@@H]([C@H](O)CC2CC(=O)NC(=O)C2)C(=O)[C@@H](C)C1 [cycloheximide, Cycloheximide]
Effect on PRG1 mRNA, compound alone ([2]; T-47D, cycloheximide 20 μg/ml alone, 3 h): increase of PRG1 mRNA to a level similar to that achieved by ORG 2058 alone
Effect on progestin-mediated induction of PRG1 mRNA ([2]; T-47D, cycloheximide 20 μg/ml with ORG 2058 10 nM, 3 h): failed to block

insulin: human insulin, Actrapid; CSL-Novo
Induction of PRG1 mRNA by mitogen [2]: 2.8 fold
Relative mRNA Expression ([2]; T-47D, at 4 h): 2.8^† at 4 h
Potency as mitogen in stimulating cell cycle progression [3]: equipotent
